# What was measured:
# Format in all cases: cell-based
# [1] = test system: Aspergillus niger, ATCC 16404; test: Fungal test, inhibition halo in Petri dish with central well; conditions: tests with well, 25° C.
# Description: (§1) A study about the efficacy of the composition of the present invention to some fungi was conducted. The compositions were tested according to the MIC method. The methodology being used is herein reported.
# (§2) The tested fungi strains were as follows: i) Aspergillus niger, ATCC 16404; ii) Trichoderma viride, ATCC 28020; iii) Penicillium funiculosum ATCC 9644 and iv) Chaetomium globosum, ATCC 16021.
# (§3) For each strain, time by time, a culture in liquid nutrient medium such as SABORAUD DEXEROSE AGAR was made.
# (§4) Freshly-made subcultures were created, and incubated until obtaining an estimated density of […]. The estimate was obtained by spectrophotometric measurement of absorption at 530 nm.
# (§5) Bacteriostatic tests: The tests were performed by placing fungal culture aliquots (set forth in the tables below) in Petri dishes with a central well (1 centimeter diameter) in which the product to be tested was poured. All the plates were incubated at 25° C. The incubation time for solutions A, B, C, D, E and F was 72 hours, while for products. M1, M2 and M3 the time was 30 hours.
# (§6) The results are expressed as inhibition halo diameter being measured over each plate. […] Consequently, a 0 mm diameter denotes an undetectable halo. The described values indicate the average from the minimum and maximum values of halos for each test. Values are expressed in mm of inhibition.
# [2] = test system: Penicillium funiculosum ATCC 9644; test: as above; conditions: tests with well, 25° C.
# Description: as §1, §2, §3, §4, §5, §6
# [3] = test system: Chaetomium globosum, ATCC 16021; test: as above; conditions: tests with well, 25° C.
# Description: as §1, §2, §3, §4, §5, §6
# [4] = test system: Trichoderma viride, ATCC 28020; test: as above; conditions: tests with well, 25° C.
# Description: as §1, §2, §3, §4, §5, §6
# fungi = test: Fungal tests, overall conclusion versus fluconazole; conditions: 0.07 mg versus 2 mg (about 1:28 ratio); alone or combined with each other
# Description: as §1, §2, §5, §6
# [5] = test system: Staphylococcus aureus ATCC 25923; test: Bacteriostatic test, inhibition halo in Petri dish with central well; conditions: 2 cc of a 0.7% solution equal to 35 mg, diameter does not include the 10 mm central well
# Description: (§7) A study about the efficacy of a gascardic acid-based composition referred to as M3 was conducted against some publicly available pathogenic bacteria such as (1) Staphylococcus aureus—ATCC 25923 (190×10^6 UFC/ml) (2) Pseudomonas aeruginosa—ATCC 15442 (305×10^6 UFC/ml) and (3) Escherichia coli—ATCC 25922 (300×10^6 UFC/ml). The composition M3 was tested according to MIC method.
# (§8) The method was carried out as follows. Time by time, a culture of the above-mentioned strains was prepared in a Tryptic soy Agar type growth medium. Freshly-made subcultures were prepared, and incubated until obtaining an estimated density of 1×10^6 cells per ml of culture. The assessment was obtained by spectrophotometric measurement of absorption at known wavelengths.
# (§9) The bacteriostatic tests were performed by placing the bacterial culture in Petri dishes with a central well of 1 cm diameter, containing the 2 cc aliquot of composition M3. Then, the freshly-made subculture was plated over the surrounding medium. Next, the Petri dishes were placed in a thermostatic environment at 30° C. and examined after 24 and 48 ore.
# (§10) The results are expressed as inhibition halo diameter measured over each Petri dish. […] Consequently, a zero mm (0 mm) diameter denotes an undetectable halo. The given average values are obtained by considering the minimum and maximum value of each halo.
# (§11) According to the above-described MIC method, a test where the pathogenic bacteria (1) Staphylococcus aureus ATCC 25923 (2) Pseudomonas aeruginosa ATCC 15442 and (3) Escherichia coli ATCC 25922 were tested along using composition M5 and composition M5+M3 was conducted.
# [6] = test system: Escherichia coli ATCC 25922; test: as above; conditions: 2 cc of a 0.7% solution equal to 35 mg, diameter does not include the 10 mm central well
# Description: as §7, §8, §9, §10, §11
# [7] = test system: Pseudomonas aeruginosa ATCC 15442; test: as above; conditions: 2 cc of a 0.7% solution equal to 35 mg, diameter does not include the 10 mm central well
# Description: as §7, §8, §9, §10, §11
# [8] = incubation 72 hours, 1 cc per plate
# [9] = incubation 30 hours, 1 cc (0.07 mg of compound)
compound,measurement,setting,value
"OC(Cn1cncn1)(Cn1cncn1)c1ccc(F)cc1F [Test A, Fluconazole, reference compound]",mm of inhibition (inhibition halo diameter),[1]; [8],1 mm
same,mm of inhibition (inhibition halo diameter),[2]; [8],0 mm
same,mm of inhibition (inhibition halo diameter),[3]; [8],11-17 mm
same,mm of inhibition (inhibition halo diameter),[4]; [8],0 mm
"C=C(C)[C@@H]1CC[C@]2(C(=O)O)CC[C@]3(C)[C@H](CC[C@@H]4[C@@]5(C)CC[C@H](O)C(C)(C)[C@@H]5CC[C@]43C)[C@@H]12 [Test M1, Betulinic acid]",mm of inhibition (inhibition halo diameter),[1]; [9],15-16 mm
same,mm of inhibition (inhibition halo diameter),[2]; [9],12-18 (*) mm
same,mm of inhibition (inhibition halo diameter),[3]; [9],22-26 mm
same,mm of inhibition (inhibition halo diameter),[4]; [9],31-34 (*) mm
"C[C@H]1C(=O)CC[C@@H]2[C@]1(C)CC[C@H]1[C@@]2(C)CC[C@@]2(C)[C@@H]3CC(C)(C)CC[C@]3(C)CC[C@]12C [Test M2, Fridelin]",mm of inhibition (inhibition halo diameter),[1]; [9],3-4 mm
same,mm of inhibition (inhibition halo diameter),[2]; [9],1-1.5 mm
same,mm of inhibition (inhibition halo diameter),[3]; [9],5-11 (*) mm
same,mm of inhibition (inhibition halo diameter),[4]; [9],2-6 mm
same,fungicidal activity compared with M4 (fluconazole),fungi,strong fungicidal activity than M4
Gascardic acid [Test M3],Halo in mm (inhibition halo diameter),[5],8 mm
same,Halo in mm (inhibition halo diameter),[6],6 mm
same,Halo in mm (inhibition halo diameter),[7],6 mm
same,mm of inhibition (inhibition halo diameter),[1]; [9],15-18 mm
same,mm of inhibition (inhibition halo diameter),[2]; [9],15-20 (*) mm
same,mm of inhibition (inhibition halo diameter),[3]; [9],19-26 mm
same,mm of inhibition (inhibition halo diameter),[4]; [9],16-27 mm
same,fungicidal activity compared with M4 (fluconazole),fungi,strong fungicidal activity than M4

# Source: patent US9775348B2, “Composition comprising a sesterterpene and use thereof as antibiotic and antifungal adjuvant” (RODE PHARMA S.R.L., priority 2012, dated 2017)
